Tests used:
[1] = test system: Rat basophilic leukemia (RBL) cells; assay: LTB4 secretion assay in RBL (rat basophilic leukemia cells); format: cell-based; settings: Rattus norvegicus, RBL
Procedure, shortened: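 LTB4 released into supernatant was measured by EIA after 10 min at 37 °C with arachidonic acid (2.5 uM final) and calcium ionophore A23187 (5 uM final). Before stimulation, cells plated 2×10^4/well overnight received compound doses (5 nM to 100 uM) for 15 min in 0.5% FBS medium.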

[2] = molecular target: T1, Human 5-lipoxygenase (5-LOX) (Homo sapiens, UniProt P09917); assay: 5-LOX enzyme activity, LTB4 measurement by ELISA; format: biochemical; settings: ELISA method; read-out: 5LO (IC50)
T1 construct: purchased Cayman 60402; host or cells: insect cells
T1 sequence (P09917 1-674): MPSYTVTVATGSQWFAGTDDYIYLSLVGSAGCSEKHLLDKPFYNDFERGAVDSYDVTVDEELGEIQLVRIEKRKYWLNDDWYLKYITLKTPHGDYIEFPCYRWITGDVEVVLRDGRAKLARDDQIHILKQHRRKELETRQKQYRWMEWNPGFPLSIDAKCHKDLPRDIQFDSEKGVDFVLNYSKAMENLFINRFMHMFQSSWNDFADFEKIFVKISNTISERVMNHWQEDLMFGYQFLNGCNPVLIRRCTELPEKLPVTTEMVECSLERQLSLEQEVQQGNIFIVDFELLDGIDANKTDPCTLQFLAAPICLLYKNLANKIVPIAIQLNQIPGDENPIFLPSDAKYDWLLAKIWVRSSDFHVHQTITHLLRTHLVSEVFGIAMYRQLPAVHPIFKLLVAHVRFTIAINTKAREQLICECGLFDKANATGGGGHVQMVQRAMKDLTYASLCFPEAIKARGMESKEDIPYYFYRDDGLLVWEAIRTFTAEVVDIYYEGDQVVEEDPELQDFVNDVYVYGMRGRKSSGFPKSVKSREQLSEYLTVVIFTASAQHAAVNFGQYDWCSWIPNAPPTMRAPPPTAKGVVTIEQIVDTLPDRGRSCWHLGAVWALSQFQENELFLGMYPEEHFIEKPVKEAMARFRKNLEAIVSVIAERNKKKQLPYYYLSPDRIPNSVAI
Protocol: The activity of compounds against 5-LOX were determined by measuring LTB4 (leukotriene B4) levels and/or by a fluorescence method. Both approaches are outlined in more detail below;
LTB4 Measurement by ELISA:
Human 5-lipoxygenase (5-LOX) (Cayman, Cat #60402) produced in insect cells was pre-incubated with compounds for 5 min at RT in incubation buffer (50 mM Tris-Cl, pH 7.4, 2 mM CaCl2, 0.1 mM ATP, 2% DMSO). Compounds were tested in dose reponse from 0.5 nM to 10 uM. The enzymatic reaction was started by adding arachidonic acid to a final concentration of 3 uM. After 5 min of incubation at 25° C., the reaction was stopped by adding H2O2 to a final concentration of 1 mM. LTB4 levels were quantified using a LTB4 EIA kit (Cayman, Cat #520111) as instructed.

human 5-LOX = molecular target: T2, human 5-LOX (Homo sapiens, UniProt P09917); assay: 5-LOX enzyme activity, fluorescence method (5-HPETE, H2DCFDA); format: biochemical; settings: read-out: 5-LO (IC50)
T2 construct: purchased Cayman 60402; host or cells: insect cells (lysate)
T2 sequence (P09917 1-674): T1 sequence (P09917 1-674)
Procedure, shortened: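 Fluorescence-based read-out, run entirely at room temperature. Enzyme mixture was exposed to a dose range of compound from 0.5 nM to 10 uM for 5 min before ATP and arachidonic acid were added to final levels of 100 uM and 3 uM.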

Rat whole blood (RWB) = assay: LTB4 secretion assay in RWB (rat whole blood); format: cell-based; settings: Rattus norvegicus
Procedure, shortened: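 LTB4 release was measured by EIA in supernatants of pooled, sodium heparin rat blood (male Sprague Dawley, 6-9 weeks) diluted 1:1 with RPMI. Compounds (2.5 nM to 50 uM) were added 15 min before A23187 (10 uM final), with 10 min stimulation at 37 °C before ice-cold PBS quench.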

HeLa S3 cells = assay: PGE2 inhibition assay (HTRF) in TNF-α stimulated HeLa S3 cells; format: cell-based; settings: Homo sapiens; PGE2, 10 uM compound, HeLa S3 stimulated with TNF-α
Protocol: Human epitheloid cervix carcinoma HeLa S3 cells (2×10^6cells/ml) were seeded with modified F-12K buffer medium pH 7.4 in tissue culture plate and incubated for overnight at 37° C. and 5% CO2. Then medium was changed into new medium contained 10 uM testing compounds or 0.1% DMSO and incubated overnight. After incubation, cells were stimulated with 30 nM TNF-α (Tumor necrosis factor-α) for 16 h. For determination of PGE2, the supernatant was measured by PGE2 HTRF (Homogeneous Time Resolved Fluorescence) assay kit Inhibition of PGE2 by compounds is calculated as a percentage of activity in the presence of drug versus the activity in the stimulator TNF-α.

Brown Norway rats = assay: OVA-induced airway inflammation model in Brown Norway rats; format: in vivo, rat; settings: 25, 50, 100 mg/kg p.o. BID, Day 19-21
Source text: The objective of this study is to determine the efficacy of compounds in the lungs of ovalbumin (OVA) induced in Brown Norway rats. As with most models of induced allergic asthma, animals are systemically sensitized to specific antigens and then, after a period of time, challenged with the same allergen administered via the airway. Ovalbumin had been used as the standard allergen to sensitize and challenge animals in this study.
Thirty (30) male Brown Norway rats were randomized into 5 groups on the basis of body weight. For sensitization, 1% OVA in PBS solution was mixed with alum solution (with volume ratio of 1:9). All rats in groups 1-5 were sensitized by i.p injection (1 mL/rat) of 1% OVA-alum sensitization solution on day 1, 2 and 3. At day 21, rats in groups 1-5 were challenged with 1% OVA in PBS solution with aerosolizing dosing system for 20 min.
Test compounds were administered by p.o. from days 19-21 of the study as per schedule below:
Group 1: sensitized-vehicle,
Group 2: reference drug dexamethasone, 0.3 mg/kg, p.o., Day 19-21, BID,
Group 3: compound 211, 25 mg/kg, p.o., Day 19-21, BID,
Group 4: compound 211, 50 mg/kg, p.o., Day 19-21, BID,
Group 5: compound 211, 100 mg/kg, p.o., Day 19-21, BID,
On day 22, bronchoalveolar lavage and lung tissues were harvested. Total cell number and differential cell counts in BALF, leukotriene B4 (LTB4) in BALF and lung tissue, histopathology of lung by H&E staining will be evaluated.

EC50 [1]	IC50 [2]	IC50 (human 5-LOX)	EC50 (Rat whole blood (RWB))	Structure (SMILES)	inhibition at 10 µM (HeLa S3 cells)	LTB4 in BALF and Lung (Brown Norway rats)	increase of inflammatory cells including total cell and eosinophils (Brown Norway rats; BALF)	inflammation cell infiltration (Brown Norway rats; lung histopathology)
< 10 µM	< 1 µM	< 1 µM	< 10 µM	Nc1ccc2[nH]c(NCc3ccc(Oc4ccc(Cl)cc4)cn3)nc2c1 [Compound 14]	–	–	–	–
< 10 µM	1 to 20 µM	< 1 µM	< 10 µM	Nc1ccc2nc(N)n(CCOc3ccc(OC(F)(F)F)cc3)c2c1 [Compound 48]	–	–	–	–
< 10 µM	1 to 20 µM	> 10 µM	10 to 20 µM	Nc1ccc2c(c1)nc(N)n2CCOc1ccc(OC(F)(F)F)cc1 [Compound 49]	–	–	–	–
< 10 µM	–	< 1 µM	< 10 µM	Cn1c(NCc2ccc(Oc3ccc(Cl)cn3)cc2)nc2ccc(NC3COC3)cc21 [Compound 211]	40 to 70%	reduced	significantly reduced	significantly reduced
